Assay results from ChEMBL document CHEMBL4828759, “Targeted methylation facilitates DNA double strand breaks and enhances cancer suppression: A DNA intercalating/methylating dual-action chimera Amonafidazene” (Eur J Med Chem, 2021).
Values belong to the compound of their own block, whether it stands above or below them. Activity calls are given as the source filed them. No cut-off for these calls is given here.

What was measured:
[1] = system: A 172; assay: Cytotoxicity against human A 172 cells assessed as cell viability measured after 96 hrs by XTT assay; assay type: functional, cell-based; conditions: A 172, 96 h
[2] = system: WM 266-4; assay: Cytotoxicity against human WM 266-4 cells assessed as cell viability measured after 96 hrs by XTT assay; assay type: functional, cell-based; conditions: WM 266-4, 96 h
[3] = system: NCI-H1299; assay: Cytotoxicity against human NCI-H1299 cells assessed as cell viability measured after 96 hrs by XTT assay; assay type: functional, cell-based; conditions: NCI-H1299, 96 h
[4] = system: DNA; assay: Induction of DNA methylation in human HCT-116 cells assessed as reduction of MGMT expression at 200 uM measured after 48 hrs by Western blot assay relative to control; assay type: functional, cell-based; set-up: scale not given: the % may be the effect or the level left
[5] = system: DNA; assay: Induction of DNA methylation in human HCT-116 cells assessed as reduction of MGMT expression at 400 uM measured after 48 hrs by Western blot assay relative to control; assay type: functional, cell-based; set-up: scale not given: the % may be the effect or the level left
[6] = system: MDA-MB-238; assay: Cytotoxicity against human […] cells assessed as cell viability measured after 96 hrs by XTT assay; assay type: functional, cell-based
[7] = system: MDA-MB-238; assay: Inhibition of DNA Topoisomerase-2 in human […] cells assessed as generation of DNA double strand breaks by measuring gamma-H2AX at 2 uM incubated for 24 hrs followed by drug washout and measured after 24 hrs by immunofluorescence assay; assay type: cell-based
[8] = system: MDA-MB-238; assay: Antitumour activity against human […] cells xenografted in athymic nude-Foxn 1nu mouse assessed as inhibition of tumour growth at 1.9 mg/kg, ip measured after 5 weeks; assay type: functional, organism-based
[9] = system: MDA-MB-238; assay: Inhibition of DNA Topoisomerase-2 in human […] cells assessed as generation of DNA double strand breaks measuring gamma-H2AX at 2 uM incubated for 24 hrs followed by drug washout and measured after 96 hrs by immunofluorescence assay; assay type: cell-based
[10] = Drug metabolism in human MDA-MB-231 cells xenografted in athymic Balb/c mouse assessed as increase of free amonafide in tumor at 10 mg/kg, ip measured after 120 hrs by fluorescence based microscopic assay; assay type: ADME, organism-based; conditions: in vivo
[11] = Drug metabolism in human MDA-MB-231 cells assessed as increase of free amonafide in cell at 25 uM measured after 2 hrs by fluorescence based microscopic assay; assay type: ADME; conditions: mda-mb-231, 2 h
[12] = system: MDA-MB-238; assay: Antitumour activity against human […] cells xenografted in athymic nude-Foxn 1nu mouse assessed as inhibition of tumour growth at 3.8 mg/kg, ip measured after 5 weeks; assay type: functional, organism-based
[13] = system: MDA-MB-238; assay: Inhibition of DNA Topoisomerase-2 in human […] cells assessed as generation of DNA double strand breaks measuring gamma-H2AX at incubated for 24 hrs followed by drug washout and measured after 24 to 96 hrs by immunofluorescence assay; assay type: cell-based

Structure (SMILES): COC(=O)N(C)/N=N/c1ccc(CO)cc1
IC50 [1]: > 40 µM | IC50 [2]: > 100 µM | IC50 [3]: > 100 µM | Activity [4]: 75% | Activity [5]: 48% | IC50 [6]: > 100 µM

Structure (SMILES): CN(C)CCN1C(=O)c2cccc3cc(N)cc(c23)C1=O [AMONAFIDE]
IC50 [1]: 23.8 µM | inhibition [7]: Active | IC50 [2]: 6.92 µM | Activity [8]: Active | IC50 [3]: 8.84 µM | inhibition [9]: Active | IC50 [6]: 24.2 µM

Structure (SMILES): COC(=O)N(C)/N=N/c1ccc(COC(=O)Nc2ccc3c4c(cccc24)C(=O)N(CCN(C)C)C3=O)cc1
IC50 [1]: 7.46 µM | IC50 [2]: 4.86 µM | IC50 [3]: 3.61 µM | IC50 [6]: 6.26 µM

Drug metabolism [10]: Metabolite_Detected | Drug metabolism [11]: Metabolite_Detected
Structure (SMILES): COC(=O)N(C)/N=N/c1ccc(COC(=O)Nc2cc3c4c(cccc4c2)C(=O)N(CCN(C)C)C3=O)cc1
IC50 [1]: 2.73 µM | inhibition [7]: Active | IC50 [2]: 3.79 µM | Activity [8]: Active | IC50 [3]: 1.79 µM | inhibition [9]: Active | IC50 [6]: 3.02 µM | Activity [12]: Active

Structure (SMILES): Cn1nnc2c(C(N)=O)ncn2c1=O [TEMOZOLOMIDE]
IC50 [1]: > 40 µM | inhibition [13]: inactive | IC50 [2]: > 100 µM | IC50 [3]: > 100 µM | Activity [4]: 93% | Activity [5]: 57% | IC50 [6]: > 100 µM
